Laboratory results as given in the supplement of paper PMC10307832.

How the values were obtained:
Test in all cases: relative viability (nuclei count vs DMSO), 5 days (fraction); higher = more cells survive
Seliciclib + AZD7762 = compound: CC[C@H](CO)Nc1nc(NCc2ccccc2)c2ncn(C(C)C)c2n1 [Seliciclib] + NC(=O)Nc1cc(-c2cccc(F)c2)sc1C(=O)N[C@H]1CCCNC1 [AZD7762] (partner 0.2 µM)
In short: (§1)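 Lung cancer cell lines were seeded in 1536-well plates and dosed by pin tool the next day, with either a single drug or a fixed anchor-drug dose combined with five library-drug doses (not always all listed) spaced in √10 steps. Five days later, one step fixed the cells and stained their nuclei (final 0.05% Triton X-100, 1% formaldehyde, 1 ug/ml Hoechst), and nuclei were counted on 4× images. Relative viability is the nuclei count in treated wells divided by the count in vehicle wells, and each value is the median of duplicate plates.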

Seliciclib + Crizotinib = compound: CC[C@H](CO)Nc1nc(NCc2ccccc2)c2ncn(C(C)C)c2n1 [Seliciclib] + C[C@@H](Oc1cc(-c2cnn(C3CCNCC3)c2)cnc1N)c1c(Cl)ccc(F)c1Cl [Crizotinib] (partner 1 µM)
In short: as §1

Seliciclib + Palbociclib = compound: CC[C@H](CO)Nc1nc(NCc2ccccc2)c2ncn(C(C)C)c2n1 [Seliciclib] + CC(=O)c1c(C)c2cnc(Nc3ccc(N4CCNCC4)cn3)nc2n(C2CCCC2)c1=O [Palbociclib] (partner 0.5 µM)
In short: as §1

Seliciclib + Vorinostat = compound: CC[C@H](CO)Nc1nc(NCc2ccccc2)c2ncn(C(C)C)c2n1 [Seliciclib] + O=C(CCCCCCC(=O)Nc1ccccc1)NO [Vorinostat] (partner 1 µM)
In short: as §1

Row | Cell Line | relative viability (Seliciclib + AZD7762; first compound 0.08 µM) | relative viability (Seliciclib + AZD7762; first compound 0.253 µM) | relative viability (Seliciclib + AZD7762; first compound 0.8 µM) | relative viability (Seliciclib + AZD7762; first compound 2.53 µM) | relative viability (Seliciclib + AZD7762; first compound 8 µM) | relative viability (Seliciclib + Crizotinib; first compound 0.08 µM) | relative viability (Seliciclib + Crizotinib; first compound 0.253 µM) | relative viability (Seliciclib + Crizotinib; first compound 0.8 µM) | relative viability (Seliciclib + Crizotinib; first compound 2.53 µM) | relative viability (Seliciclib + Crizotinib; first compound 8 µM) | relative viability (Seliciclib + Palbociclib; first compound 0.08 µM) | relative viability (Seliciclib + Palbociclib; first compound 0.253 µM) | relative viability (Seliciclib + Palbociclib; first compound 0.8 µM) | relative viability (Seliciclib + Palbociclib; first compound 2.53 µM) | relative viability (Seliciclib + Palbociclib; first compound 8 µM) | relative viability (Seliciclib + Vorinostat; first compound 0.08 µM) | relative viability (Seliciclib + Vorinostat; first compound 0.253 µM) | relative viability (Seliciclib + Vorinostat; first compound 0.8 µM) | relative viability (Seliciclib + Vorinostat; first compound 2.53 µM) | relative viability (Seliciclib + Vorinostat; first compound 8 µM)
1 | HOP-62 | 0.63 | 0.407 | 0.394 | 0.923 | 0.822 | 1.02 | 0.981 | 0.976 | 0.781 | 0.898 | 0.463 | 0.398 | 0.397 | 0.366 | 0.308 | 0.65 | 0.623 | 0.732 | 0.479 | 0.437
2 | LC-2-ad | 0.839 | 0.882 | 0.791 | 0.741 | 0.853 | 0.442 | 0.456 | 0.479 | 0.46 | 0.404 | 0.49 | 0.524 | 0.494 | 0.466 | 0.371 | 0.7 | 0.68 | 0.671 | 0.445 | 0.528
3 | LCLC-97TM1 | 0.232 | 0.258 | 0.432 |  | 0.392 | 0.295 | 0.366 | 0.463 |  | 0.252 | 0.219 | 0.242 | 0.186 | 0.184 | 0.108 | 0.803 | 0.706 | 0.82 | 0.106 | 0.222
4 | LCLC-103H | 0.793 | 0.676 | 0.65 | 0.696 | 0.74 | 1.02 | 1.04 | 0.955 | 0.975 | 0.919 | 0.524 | 0.51 | 0.486 | 0.469 | 0.423 | 0.753 | 0.764 | 0.733 | 0.448 | 0.68
5 | LK-2 | 0.414 | 0.379 | 0.584 | 0.187 | 0.293 | 0.246 | 0.227 | 0.205 | 0.227 | 0.249 | 0.466 | 0.423 | 0.509 | 0.447 | 0.285 | 0.33 | 0.253 | 0.335 | 0.242 | 0.204
6 | LOU-NH91 |  | 0.715 | 0.794 | 0.702 | 0.569 | 0.721 | 0.743 | 0.678 | 0.673 | 0.685 |  | 0.56 | 0.513 | 0.492 | 0.466 |  | 0.863 | 0.803 | 0.778 | 0.613
7 | LU99A | 0.338 | 0.321 | 0.491 | 0.317 | 0.49 | 0.477 | 0.544 | 0.52 | 0.422 | 0.4 | 0.378 | 0.332 | 0.357 | 0.318 | 0.275 | 0.538 | 0.383 | 0.458 | 0.383 | 0.455
8 | LXF-289 | 1.09 | 1.33 | 1.06 | 1.16 | 0.993 | 0.82 | 0.871 | 0.779 | 0.835 | 0.638 | 0.561 | 0.677 | 0.59 | 0.543 | 0.501 | 0.735 | 0.824 | 0.671 | 0.582 | 0.457
9 | NCI-H23 | 0.25 | 0.292 | 0.424 | 0.258 | 0.468 | 0.454 | 0.427 | 0.432 | 0.42 | 0.48 | 0.548 | 0.49 | 0.416 | 0.335 | 0.258 | 0.648 | 0.554 | 0.618 | 0.367 | 0.499
10 | NCI-H322M | 0.594 | 0.646 | 0.637 | 0.692 | 0.907 | 0.85 | 1.06 | 0.839 | 1.06 | 0.554 | 0.472 | 0.538 | 0.467 | 0.428 | 0.431 | 0.894 | 1.03 | 0.87 | 0.773 | 0.521
11 | NCI-H358 | 0.55 | 0.577 | 0.235 | 0.462 | 0.434 | 0.54 | 0.709 | 0.546 | 0.544 | 0.246 | 0.13 | 0.167 | 0.133 | 0.105 | 0.107 | 0.726 | 0.942 | 0.513 | 0.711 | 0.267
12 | NCI-H441 | 1.1 | 1.09 | 0.979 | 1.28 | 0.994 | 0.896 | 0.631 | 0.833 | 0.66 | 0.519 | 0.199 | 0.217 | 0.203 | 0.144 | 0.14 | 0.844 | 0.418 | 0.898 | 0.771 | 0.639
13 | NCI-H460 | 0.567 | 0.752 | 0.71 | 1.06 | 0.773 | 0.787 | 0.821 | 0.837 | 1.36 | 0.722 | 0.203 | 0.186 | 0.169 | 0.117 | 0.0761 | 0.709 | 0.809 | 0.671 | 0.901 | 0.552
14 | NCI-H647 | 0.676 | 0.554 | 0.496 | 0.554 | 0.48 | 1.07 | 1.01 | 1.04 | 1.29 | 0.852 | 0.321 | 0.188 | 0.395 | 0.296 | 0.216 | 0.615 | 0.268 | 0.639 | 0.299 | 0.128
